Results: US4374146A, “Topical inflammatory pharmaceutical formulations” (Burroughs Wellcome Co., priority 1980, dated 1983)
Read-outs that look alike come from different tables or passages of the source.

How the values were obtained:
[1] = Acute toxicity assay, mouse; details: in vivo
[2] = tested on: acetic acid writhing; assay: Acetic Acid Writhing Test (AAWT), rat; type: in vivo; details: po, read-out: AAWT ED50
Text: (§1) A. Acetic Acid Writhing Test (AAWT)
(§2) Using the procedure described by Koster et al. in Fed. Proc. 18, 412 (1959) and Vinegar et al. in Handbook of Experimental Pharmacology, 50-2, ch.

[3] = tested on: trypsin hyperalgesia, rat hindlimb; assay: Trypsin Hyperalgesic Assay (THA), rat hindlimb; type: in vivo; details: for ED50: po, read-out: THA ED50; for Duration of Analgesia, time in hours to reduce -1.5 × THA ED50 to 40% inhibition: rat
Text: B. Trypsin Hyperalgesic Assay (THA)

[4] = tested on: gastric damage; assay: Gastric damage in the rat; type: in vivo
[5] = tested on: carrageenin pleurisy in Adrex; assay: AI activity in Adrex, carrageenin pleurisy p.o.; type: in vivo, rat; details: CP p.o.; for AI Activity in Adrex, Vol.: exudate volume
Procedure: (§3) A. Carrageenin Pleurisy Assay (CPA)
(§4) Following the procedure described by Vinegar et al. in European J. Rheumatology and Inflammation, 1, 204, (1978) the acute anti-inflammatory activity of the compound of formula (I) was compared with that of known anti-inflammatory drugs. Two assays were performed: in the first, the average 3 hr exudate volume for each drug-treated group was determined and the % inhibition relative to solvent-fed control animals calculated, the ED50 being the dose required to reduce the 3 hr exudate volume by 50%; in the second, the number of mobilized neutrophils was quantified and the % inhibition relative to solvent-fed control animals calculated, the ED50 being the dose required to reduce the number of neutrophils mobilized at 3 hrs by 50%.

[6] = tested on: yeast-induced hyperthermia; assay: Yeast-Induced Hyperthermia Assay; type: in vivo, rat; details: for ED50: po, rat
Text: The Yeast-Induced Hyperthermia Assay was used according to the procedure described by Khalili-Varasteh et al. in Arch. Int. Pharmacodyn.

[7] = tested on: acetic acid writhing; assay: Acetic Acid Writhing Test (AAWT), mouse; type: in vivo; details: po, read-out: AAWT ED50
Text: as §1, §2

[8] = Acute toxicity assay, rat; details: in vivo
Procedure: Four non-fasted male rats of 160-250 gram body weight were used for each dose level. The compound was injected by the indicated route and the symptom onset time, the intensity of the effect and the duration during a 4 hour observation period are recorded. The LD50 estimated is based on a 7 day observation and is determined by the method of Miller and Tainter (Proc. Soc. Exp. Biol. Med. 57:261, 1944).

[9] = tested on: carrageenin pleurisy (3 hr exudate volume, mobilized neutrophils); assay: Carrageenin Pleurisy Assay (CPA); type: in vivo, rat; details: for ED50: Rattus norvegicus, Neutrophil, po; for CPA Local activity (inactive at stated dose): inactive at 1.0 mg/rat
Procedure: as §3, §4

[10] = tested on: hot plate analgesia; assay: Hot plate assay for strong analgesic activity; details: in vivo
[11] = tested on: opiate receptors; assay: Opiate receptor binding in vitro
[12] = tested on: platelet aggregation; assay: Platelet aggregation inhibition
[13] = tested on: methemoglobinemia; assay: Methemoglobinemia (cyanosis), rat; details: for Methemoglobinemia (Cyanosis): rat, @ 500 mg/kg p.o.
[14] = tested on: rat liver, rat kidney; assay: Histopathology, rat liver and kidney; details: for Histopathology, Rat Kidney / Histopathology, Rat Liver: @ 40% LD50, i.p.
[15] = tested on: methemoglobinemia; assay: Methemoglobinemia (cyanosis), dog; details: for Methemoglobinemia (Cyanosis): dog
[16] = tested on: analgesic activity (naloxone); assay: Naloxone antagonism of analgesic activity; details: in vivo
[17] = tested on: hepatic glutathione; assay: Hepatic glutathione depletion in mouse; type: in vivo; details: for Hepatic Gluathione Depletion: @ 40% of LD50, i.p. in mouse, over a 5 hr period
[18] = tested on: mouse liver, mouse kidney; assay: Histopathology, mouse liver and kidney
[19] = tested on: gastric damage; assay: Gastric damage (general statement); details: in vivo
[20] = tested on: lipoxygenase; assay: Lipoxygenase inhibition; type: biochemical
[21] = tested on: prostaglandin synthetase; assay: Prostaglandin synthetase inhibition; type: biochemical
[22] = tested on: peroxidase; assay: Peroxidase inhibition; type: biochemical
[23] = tested on: mouse liver, mouse kidney; details: in vivo, ip
[24] = tested on: rat liver, rat kidney; details: in vivo, ip
[25] = dose reducing 3 hr exudate volume by 50%, read-out: CPA ED50, Vol.

SMILES	LD50 at 168 h ([1]; ip)	LD50 at 168 h ([1]; po)	ED50 ([2]; Rattus norvegicus)	AI Activity in Adrex, Cells [5]	AI Activity in Adrex, Vol. [5]	ED50 [6]	ED50 ([7]; Mus musculus)	LD50 at 168 h ([8]; ip, 7 day observation)	Duration of AI Activity, time in hrs to reduce 2 × CP cell ED50 to 40% inhibition of Vol.: Cells [9]	ED50 ([9]; 3 h, read-out: CPA ED50, Cells)	ED50 ([9]; 3 h, read-out: CPA ED50, Vol.)	Duration of AI Activity, time in hrs to reduce 2 × CP cell ED50 to 40% inhibition of Vol.: Vol. [9]	Activity in hot plate assay for strong analgesic activity [10]	Methemoglobinemia (Cyanosis) [13]	Histopathology, Rat Kidney [14]	Histopathology, Rat Liver [14]	ED50 ([3]; rat hindlimb, p.o.)	Duration of Analgesia, time in hours to reduce -1.5 × THA ED50 to 40% inhibition ([3]; p.o.)	LD50 at 168 h ([8]; po, 7 day observation)	CPA Local activity (inactive at stated dose) ([9]; local)	also measured
CC(=O)Oc1ccccc1C(=O)O [Aspirin]	220 mg/kg	1100 mg/kg	21 ± 3.4 mg/kg	Inactive	Active	50 ± 8.1 mg/kg	301 ± 21.1 mg/kg	500 mg/kg	3.0 h	75 ± 7.5 mg/kg	28 ± 3.2 mg/kg	35.0 h									Activity in trypsin hyperalgesic assay [3]: essentially inactive; THA activity (inactive at stated dose) ([3]; rat hindlimb, p.o., inactive at 360 mg/kg): Inactive; Gastric damage in the rat ([4]; single oral dose of 30 mg/kg): produces ulcers and haemorrhages; CPA ED50, Local ([9]; local): 0.04 mg/rat
CC(=O)Nc1ccc2c(c1)OCO2 [Compound of formula (I), N-(1,3-benzodioxol-5-yl)acetamide]	250 mg/kg	660 mg/kg		Active	Active	57 mg/kg		410 mg/kg	6 h			6 h	inactive	No	-	-	20 ± 5.1 mg/kg	8.0 h	1000 mg/kg	Inactive	Binding to opiate receptors in vitro [11]: does not bind to opiate receptors in vitro; Platelet aggregation inhibition [12]: does not produce the gastric damage or platelet aggregation inhibition; Methemoglobinaemia ([13]; rats, high oral doses): not been shown; Histopathological evidence of hepatic or renal damage ([14]; rat): not been shown to produce histopathological evidence of hepatic or renal damage; Methemoglobinemia (Cyanosis) ([15]; @ 200 mg/kg p.o.): Slight; Methemoglobinaemia ([15]; dogs, high dose levels): has produced methemoglobinaemia in dogs at high dose levels; Inhibition of analgesic activity by naloxone [16]: not inhibited by naloxone; Depletion of hepatic glutathione ([17]; mouse): not been shown; Histopathological evidence of hepatic or renal damage ([18]; mouse): not been shown to produce histopathological evidence of hepatic or renal damage; Gastric damage associated with aspirin-like drugs [19]: does not produce the gastric damage; ED50 ([2]; rat, p.o.): 50 ± 0.6 mg/kg; Activity in trypsin hyperalgesic assay, I.C.V. ([3]; injected intracerebroventricularly (I.C.V.)): inactive; Gastric damage in the rat ([4]; after 80 mg/kg): does not produce gastric damage; Lipoxygenase inhibition [20]: is not a prostaglandin synthetase, lipoxygenase or peroxidase inhibitor; Antipyretic activity in the rat ([6]; yeast-induced hyperthermia): comparable with aspirin and phenacetin; Prostaglandin synthetase inhibition [21]: is not a prostaglandin synthetase, lipoxygenase or peroxidase inhibitor; ED50 [9, 25]: 34 ± 2.2 mg/kg; ED50 ([9]; dose reducing neutrophils mobilized at 3 hrs by 50%, read-out: CPA ED50, Cells): 49 ± 6.8 mg/kg; Anti-inflammatory activity in the rat ([9]; carrageenin pleurisy assay): comparable with aspirin; Peroxidase inhibition [22]: is not a prostaglandin synthetase, lipoxygenase or peroxidase inhibitor
CC(=O)Nc1ccc(O)cc1 [Acetaminophen]	880 mg/kg	1640 mg/kg		Weakly Active	Active	72 ± 8.6 mg/kg			3.8 h			2.2 h		No			95 ± 17.2 mg/kg			Inactive	Methemoglobinemia (Cyanosis) ([15]; @ 100 mg/kg p.o.): No; Hepatic Gluathione Depletion [17]: + (90% depletion over a 5 hr period); Histopathology, Mouse Kidney [23]: +; Histopathology, Mouse Liver [23]: +; Histopathology, Rat Kidney [24]: +; Histopathology, Rat Liver [24]: +; ED50 ([7]; mouse, p.o.): 301 ± 11.5 mg/kg; LD50 at 168 h ([8]; ip): 1640 mg/kg; ED50 [9, 25]: 172 ± 22.4 mg/kg
CCOc1ccc(NC(C)=O)cc1 [Phenacetin, p-ethoxyacetanilide]	620 mg/kg	2500 mg/kg	46 ± 10.1 mg/kg	Inactive		55 ± 28.6 mg/kg	116 ± 14.5 mg/kg	900 mg/kg	7.0 h	110 ± 15.5 mg/kg	102 ± 14.6 mg/kg	10.5 h		Yes	-	-		5.7 h	2900 mg/kg	Inactive	Methemoglobinemia (Cyanosis) ([15]; @ 100 mg/kg p.o.): Yes; Methemoglobinaemia ([15]; relatively low dose levels): produces severe methemoglobinaemia at relatively low dose levels; Hepatic Gluathione Depletion [17]: + (90% depletion over a 5 hr period); Histopathology, Mouse Kidney ([18]; @ 40% LD50, i.p.): -; Histopathology, Mouse Liver ([18]; @ 40% LD50, i.p.): -; ED50 ([3]; Rattus norvegicus): 69 ± 11.6 mg/kg
COc1ccc2c3c1O[C@H]1[C@@H](O)C=C[C@H]4[C@@H](C2)N(C)CC[C@@]341 [Codeine]													active								
CN1CC[C@]23c4c5ccc(O)c4O[C@H]2[C@@H](O)C=C[C@H]3[C@H]1C5 [Morphine]													active								
